These results are taken from publication PMC11839852, “Preclinical comparison of (radio)lanthanides using mass spectrometry and nuclear imaging techniques: biodistribution of lanthanide-based tumor-targeting agents and lanthanides in ionic form” (European Journal of Nuclear Medicine and Molecular Imaging, 2024).

The test system of data set [1] is AR42J, PC-3 PIP and KB tumor cells. In words: In vitro cell uptake of Ln-DTPA complexes. It counts as cell-based. Conditions: all tumor cell lines, 1 h and 4 h incubation. On the procedure:
A mixture of equal molar amounts of the lanthanide chloride salts (100 nM stock solutions of ^natLuCl3, ^natTbCl3, ^natGdCl3, and ^natEuCl3, diluted in saline with an adjusted pH value to 3.5‒4.0) was prepared to obtain a final concentration of 10 pmol/mL (2.5 pmol/mL per lanthanide salt) and tested with AR42J, PC-3 PIP and KB tumor cells according to the same protocol as described for the Ln-labeled biomolecules (Supplementary Material). Analogous in vitro cell uptake studies were also performed with lanthanide metal complexes of diethylenetriaminepentaacetic acid (DTPA, Sigma Aldrich Chemie, Steinheim, Germany) to obtain a final concentration of 10 pmol/mL (2.5 pmol/mL per lanthanide complex) (Supplementary Material).
Methods: The same experimental setting as described for Ln-labeled biomolecules was applied to perform uptake and internalization studies with the lanthanide DTPA complexes (Ln-DTPA; Ln = ^natLu, ^natTb, ^natGd and ^natEu). The lanthanides were dissolved in 0.05 M hydrochloric acid and further diluted in a 1:5 (v/v) mixture of sodium acetate (0.5 M) and hydrochloric acid (0.05 M), pH ~4.5. A 10-fold molar excess of DTPA (5 mM, aq.) was added to each lanthanide dilution and the reaction mixtures were incubated for 10 min at 95 °C. The complexed lanthanides were further diluted in saline with an adjusted pH value to 3.5-4.0 for in vitro experiments. The applied solution was a mixture of the four Ln-DTPA complexes at a final concentration of 0.4 µM. Of these mixtures, 25 μL were added to the well with the corresponding tumor cells. The tumor cells were incubated for 1 h and 4 h, respectively, at 37 °C and 5% CO2. After incubation, the tumor cells were treated as described for the Ln-labeled biomolecules and processed for the measurement with ICP-MS.

The subject of data set [2] is non-tumor-bearing immunocompetent FVB mice. Conditions: mouse, in vivo, 1 h.
On the set-up of data set [3]: method as in doi:10.1007/BF02040048, PMID 16411740, PMID 16644751. As to conditions: coordination with DOTA chelator; cited from earlier work.
For data set [4], the system named is non-tumor-bearing immunocompetent FVB mice. Put plainly: Biodistribution of Ln-DTPA complexes (multiplexed ICP-MS). Conditions: 1 h p.i.
The nature of data set [5]: Biodistribution of Ln-DOTATATE and Ln-DOTA-LM3 (multiplexed ICP-MS). As to conditions: female, CD1 nude, mouse, intravenous, 0.5 nmol, AR42J tumor-bearing mice; for tissue uptake at 1 h: 1 h p.i.; for tissue uptake at 24 h: 24 h p.i.
The mark [6] stands for this setting: AR42J tumor, Tissue uptake: AR42J tumor.
Setting [7] is: intestines, Tissue uptake: Intestines.
[8] abbreviates: kidneys, Tissue uptake: Kidneys.
[9] abbreviates: pancreas, Tissue uptake: Pancreas.
[10] abbreviates: salivary glands, Tissue uptake: Salivary glands.

The structures appear in SMILES notation. Where two headings read alike, the source gives them in different places. Where a SMILES comes first, the peptide text is derived from it. Bridges are numbered along the chain shown (N, C = ends). [ ]: non-standard residue; d: D form. The star is where a group is joined. DOTA = O=C(O)CN1CCN(CC(=O)O)CCN(CC(=O)*)CCN(CC(=O)O)CC1; dPhe(4-NHCONH2) = NC(=O)Nc1ccc(C[C@@H](N)C(=O)O)cc1; Phe(4-Cl) = N[C@@H](Cc1ccc(Cl)cc1)C(=O)O

On to `O=C([O-])CN(CCN(CC(=O)[O-])CC(=O)[O-])CCN(CC(=O)[O-])CC(=O)[O-].[Gd+3]` [[^157Gd]Gd-DTPA], for which, in data set [1], the “Lanthanide detected in cell samples (background levels)” value (“Lanthanide detected in cell samples” for short) is < 60 ppt. In addition, in data set [2], the “Tissue uptake: Blood” value is <0.5 % ID/g, the “Tissue uptake: Bone” value is listed as <0.5 % ID/g, the “Tissue uptake: Brain” value is given as <0.5 % ID/g and the “Tissue uptake: Heart” value came out at 0.55 ± 0.06 % ID/g. Also, in data set [2], the “Tissue uptake: Intestines” value is reported as <0.5 % ID/g, the “Tissue uptake: Kidneys” value is 2.1 ± 0.9 % ID/g, the “Tissue uptake: Liver” value is <0.5 % ID/g and the “Tissue uptake: Lung” value was found to be 0.56 ± 0.12 % ID/g. Further, in data set [2], the “Tissue uptake: Muscle” value is given as 0.51 ± 0.07 % ID/g, the “Tissue uptake: Pancreas” value is given as <0.5 % ID/g, the “Tissue uptake: Salivary glands” value is listed as <0.5 % ID/g and the “Tissue uptake: Spleen” value is 0.52 ± 0.03 % ID/g. Further, the “Tissue uptake: Stomach” value in data set [2] amounted to 0.77 ± 0.17 % ID/g.

As for `O=C([O-])CN1CCN(CC(=O)[O-])CCN(CC(=O)[O-])CCN(CC(=O)[O-])CC1.[Tb+3]` [Tb-DOTA], the logK in data set [3] is on record as 24.2.

In the case of `O=C([O-])CN1CCN(CC(=O)[O-])CCN(CC(=O)[O-])CCN(CC(=O)[O-])CC1.[Lu+3]` [Lu-DOTA], the logK in data set [3] is 25.4.

`O=C([O-])CN(CCN(CC(=O)[O-])CC(=O)[O-])CCN(CC(=O)[O-])CC(=O)[O-].[Eu+3]` [[^153Eu]Eu-DTPA]: the “Lanthanide detected in cell samples” value in data set [1] is < 20 ppt. In addition, in data set [4], the “Tissue uptake: Blood” value is listed as <0.5 % ID/g, the “Tissue uptake: Bone” value is listed as <0.5 % ID/g, the “Tissue uptake: Brain” value was <0.5 % ID/g and the “Tissue uptake: Heart” value is given as <0.5 % ID/g. In addition, in data set [4], the “Tissue uptake: Intestines” value is listed as <0.5 % ID/g, the “Tissue uptake: Kidneys” value worked out at 2.1 ± 1.0 % ID/g, the “Tissue uptake: Liver” value is <0.5 % ID/g and the “Tissue uptake: Lung” value was <0.5 % ID/g. For the same compound, in data set [4], the “Tissue uptake: Muscle” value was <0.5 % ID/g, the “Tissue uptake: Pancreas” value is recorded as <0.5 % ID/g, the “Tissue uptake: Salivary glands” value is reported as <0.5 % ID/g and the “Tissue uptake: Spleen” value is listed as <0.5 % ID/g. The “Tissue uptake: Stomach” value in data set [4] was determined as 0.51 ± 0.07 % ID/g.

For `O=C([O-])CN1CCN(CC(=O)[O-])CCN(CC(=O)O)CCN(CC(=O)[O-])CC1.[Gd+3]` [Gd-DOTA], in data set [3], the logK is reported as 24.6.

For the compound `O=C([O-])CN1CCN(CC(=O)[O-])CCN(CC(=O)[O-])CCN(CC(=O)[O-])CC1.[Eu+3]` [Eu-DOTA], the logK in data set [3] is on record as 23.4.

Take `O=C([O-])CN(CCN(CC(=O)[O-])CC(=O)[O-])CCN(CC(=O)[O-])CC(=O)[O-].[Tb+3]` [[^159Tb]Tb-DTPA]: the “Lanthanide detected in cell samples” value in data set [1] was < 20 ppt. In data set [4], the “Tissue uptake: Blood” value was <0.5 % ID/g, the “Tissue uptake: Bone” value is given as <0.5 % ID/g, the “Tissue uptake: Brain” value was <0.5 % ID/g and the “Tissue uptake: Heart” value is given as <0.5 % ID/g. Besides, in data set [4], the “Tissue uptake: Intestines” value was <0.5 % ID/g, the “Tissue uptake: Kidneys” value turned out to be 2.1 ± 1.0 % ID/g, the “Tissue uptake: Liver” value is <0.5 % ID/g and the “Tissue uptake: Lung” value is listed as <0.5 % ID/g. For the same compound, in data set [4], the “Tissue uptake: Muscle” value is on record as <0.5 % ID/g, the “Tissue uptake: Pancreas” value is <0.5 % ID/g, the “Tissue uptake: Salivary glands” value was <0.5 % ID/g and the “Tissue uptake: Spleen” value was <0.5 % ID/g. In addition, the “Tissue uptake: Stomach” value in data set [4] is listed as <0.5 % ID/g.

Consider `O=C([O-])CN(CCN(CC(=O)[O-])CC(=O)[O-])CCN(CC(=O)[O-])CC(=O)[O-].[Lu+3]` [[^175Lu]Lu-DTPA], for which the “Lanthanide detected in cell samples” value in data set [1] is given as < 20 ppt. Further, in data set [4], the “Tissue uptake: Blood” value is given as <0.5 % ID/g, the “Tissue uptake: Bone” value is reported as <0.5 % ID/g, the “Tissue uptake: Brain” value was <0.5 % ID/g and the “Tissue uptake: Heart” value is <0.5 % ID/g. In data set [4], the “Tissue uptake: Intestines” value was <0.5 % ID/g, the “Tissue uptake: Kidneys” value came out at 2.3 ± 1.0 % ID/g, the “Tissue uptake: Liver” value was <0.5 % ID/g and the “Tissue uptake: Lung” value is recorded as <0.5 % ID/g. Besides, in data set [4], the “Tissue uptake: Muscle” value is listed as <0.5 % ID/g, the “Tissue uptake: Pancreas” value was <0.5 % ID/g, the “Tissue uptake: Salivary glands” value is <0.5 % ID/g and the “Tissue uptake: Spleen” value is <0.5 % ID/g. In addition, the “Tissue uptake: Stomach” value in data set [4] was <0.5 % ID/g.

`C[C@@H](O)[C@@H]1NC(=O)[C@H](CCCCN)NC(=O)[C@@H](Cc2ccc(NC(N)=O)cc2)NC(=O)[C@H](Cc2ccc(O)cc2)NC(=O)[C@H](NC(=O)[C@H](Cc2ccc(Cl)cc2)NC(=O)CN2CCN(CC(=O)O)CCN(CC(=O)O)CCN(CC(=O)O)CC2)CSSC[C@@H](C(=O)N[C@H](Cc2ccc(O)cc2)C(N)=O)NC1=O` [[^175Lu]Lu-DOTA-LM3] ({DOTA}-[Phe(4-Cl)][dC]Y[dPhe(4-NHCONH2)]KTC[dY]-NH2; disulfide 2-7 (inferred); C-terminus assumed): the tissue uptake at 1 h in data set [5] (setting [6]) is 4.5 ± 0.2 %ID/g; in data set [5] (blood, Tissue uptake: Blood), 0.51 ± 0.1 %ID/g; in data set [5] (bone, Tissue uptake: Bone), < 0.5 %ID/g; in data set [5] (brain, Tissue uptake: Brain), < 0.5 %ID/g; in data set [5] (heart, Tissue uptake: Heart) it was < 0.5 %ID/g; in data set [5] (setting [7]), 0.6 ± 0.24 %ID/g. The tissue uptake at 1 h in data set [5] (setting [8]) is 11 ± 1 %ID/g; in data set [5] (muscle, Tissue uptake: Muscle), < 0.5 %ID/g; in data set [5] (setting [9]), 1.1 ± 0.1 %ID/g; in data set [5] (setting [10]) it was < 0.5 %ID/g; in data set [5] (spleen, Tissue uptake: Spleen), < 0.5 %ID/g; in data set [5] (stomach, Tissue uptake: Stomach), 1.3 ± 0.2 %ID/g. Also, the tissue uptake at 24 h in data set [5] (setting [6]) was 2.7 ± 0.3 %ID/g; in data set [5] (blood, Tissue uptake: Blood), < 0.5 %ID/g; in data set [5] (bone, Tissue uptake: Bone), < 0.5 %ID/g; in data set [5] (brain, Tissue uptake: Brain), < 0.5 %ID/g; in data set [5] (heart, Tissue uptake: Heart) it was < 0.5 %ID/g; in data set [5] (setting [7]), < 0.5 %ID/g. Further, the tissue uptake at 24 h was 4.8 ± 0.5 %ID/g in data set [5] (setting [8]); < 0.5 %ID/g in data set [5] (liver, Tissue uptake: Liver); < 0.5 %ID/g in data set [5] (lung, Tissue uptake: Lung); < 0.5 %ID/g in data set [5] (muscle, Tissue uptake: Muscle); 0.51 ± 0.17 %ID/g in data set [5] (setting [9]); < 0.5 %ID/g in data set [5] (setting [10]). For the same compound, the tissue uptake at 24 h in data set [5] (spleen, Tissue uptake: Spleen) is < 0.5 %ID/g.

By tissue uptake is commonly meant the percentage of the injected dose found per gram of tissue. Low readings indicate low uptake, high ones high uptake.
